Experimental findings from PMC6030506 (Biochemistry, 2018) are described below.

In experiment [1] the target is T1, HDAC6 (catalytic domain 2, CD2) (Danio rerio, UniProt F8W4B7).
T1 sequence (F8W4B7 440-798): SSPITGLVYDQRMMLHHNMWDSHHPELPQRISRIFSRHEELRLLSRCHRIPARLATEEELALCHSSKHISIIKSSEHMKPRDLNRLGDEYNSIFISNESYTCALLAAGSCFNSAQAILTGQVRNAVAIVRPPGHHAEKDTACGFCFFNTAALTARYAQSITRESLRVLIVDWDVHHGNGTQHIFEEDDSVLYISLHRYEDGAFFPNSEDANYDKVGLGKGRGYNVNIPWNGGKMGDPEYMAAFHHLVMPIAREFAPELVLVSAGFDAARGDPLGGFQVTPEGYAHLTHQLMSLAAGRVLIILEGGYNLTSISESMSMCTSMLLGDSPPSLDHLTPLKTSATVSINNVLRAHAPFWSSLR
The experiment can be described thus: ITC. To be noted: […] HEPES pH […] KCl, […] glycerol, […] TCEP. In kind it is binding.

Another experiment concerns the target T2, HDAC8 (Homo sapiens, UniProt Q9BY41).
T2 sequence (Q9BY41 1-377): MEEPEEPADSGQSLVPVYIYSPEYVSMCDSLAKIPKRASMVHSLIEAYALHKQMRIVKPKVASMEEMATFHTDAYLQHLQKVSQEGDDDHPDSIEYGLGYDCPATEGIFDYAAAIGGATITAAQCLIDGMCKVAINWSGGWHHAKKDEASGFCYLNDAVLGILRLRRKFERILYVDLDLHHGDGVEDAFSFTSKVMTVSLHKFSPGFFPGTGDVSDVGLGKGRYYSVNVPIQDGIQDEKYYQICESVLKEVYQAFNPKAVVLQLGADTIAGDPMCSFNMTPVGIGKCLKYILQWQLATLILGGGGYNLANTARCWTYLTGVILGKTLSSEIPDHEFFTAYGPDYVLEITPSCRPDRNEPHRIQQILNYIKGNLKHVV
The experiment can be described thus: ITC. In kind it is binding. To be noted: […] HEPES pH […] KCl, […] glycerol, […] TCEP.

In the case of `O=C(CCCCCCNC(=O)c1cnc(N(c2ccccc2)c2ccccc2)nc1)NO` [Ricolinostat], in experiment [1], the Kd result is “the aliphatic hydroxamate inhibitor Ricolinostat”.

Take `O=C(NO)c1ccc(CN(CCO)C(=O)Cc2ccccc2)cc1` [HPB]: the Kd result (at HDAC8; in experiment [1]) was “we additionally studied the binding of the phenylhydroxamate derivative HPB” each time.

As to `O=C(CCCCCCC(=O)Nc1ccccc1)NO` [SAHA], the Kd entry in experiment [1] is given as “the aliphatic hydroxamate inhibitor suberoylanilide hydroxamic acid (SAHA)”.
